Data from patent publication US20130267494A1, “1,4-OXAZEPANE DERIVATIVES” (priority 2010, published 2013).
Where a name gives a salt, the structure may show the parent alone.

Legend:
SD female rats = assay: Measurement of urethral resistance increasing effect (leak point pressure, oral administration); type: in vivo, rat
Protocol: The urethral resistance increasing effect in rat was measured by a modified method of Matsumoto et al. (WO2009/063992) as follows. That is, SD female rats (CLEA Japan, Inc.) were anesthetized with isoflurane (1.0%; Abbott), and the spinal cord was transected at Th8-9 to avoid the voiding reflex. After laparotomy, an intravesical pressure measurement catheter and a saline infusion catheter (PE-100; Clay Adams) were inserted into the bladder. Thereafter, the abdomen of the rat was closed with aronalpha A “Sankyo” (Daiichi Sankyo). The rat with an inserted catheter was placed in a Bollman cage (KN-326 Bollman cage TYPE III; Natsume). The intravesical pressure measurement catheter was connected to a computer via a pressure transducer (DX-100; Nihon Koden), an amplifier (RPM-6008M; Nihon Koden/303638; SAN-EI), and a multi-channel data analyzer (MP150/MP100; Biopack), and changes in the intravesical pressure were recorded on a hard disc at a frequency of 100 samples/sec. The saline infusion catheter was connected to a 50 mL syringe (Terumo) filled with saline colored with Evans Blue (Wako). The saline was infused into the bladder from the 50 mL syringe filled with saline at a rate of 0.1 mL/sec by using an infusion pump (Kds100; KD Scientific). When the saline leaked from the urethral orifice, infusion was discontinued, and the saline in the bladder was released. The maximum pressure observed during infusion of saline into the bladder and leakage thereof was taken as an LPP (Leak point pressure) value. The measurement was repeated until the LPP value was stabilized, and an average of continuous three stable LPP values was taken as the result. In addition, the measurement of drug effect was started 1 hr after the animal was placed in the Bollman cage. The LPP value (Pre value) was measured, a drug was orally administered, and the measurement of LPP value (Post value) was again started 15 min, 30 min, 1 hr, 2 hr and 4 hr after administration. The urethral resistance increasing effect by the drug was shown by the difference between the LPP value (Post value) and LPP value (Pre value). The drug was orally administered at 2.0 mL/kg, using 0.5% methylcellulose as a vehicle. For detection of a significant difference in the urethral resistance increasing effect by the drug as compared to the vehicle, the following method was used. For comparison of 3 or more groups, the Williams' test was used for a parametric test, and the Shirley-Williams' test was used for a non-parametric test. For comparison of 2 groups, the Student's t-test was used for a parametric test, and the […] was used for a non-parametric test.

[1] = target: T1, human dopamine transporter (Homo sapiens, UniProt Q01959); assay: Inhibitory action on human dopamine transporter ([3H]-dopamine uptake in CHO cells); type: cell-based; conditions: CHO, relative to inhibitory activity of 100 μM Nomifensine as 100%, read-out: inhibitory rate (%); for inhibition at 1 µM: compound 1 μM
T1 construct: expressed in transfected cells
T1 sequence (Q01959 whole entry): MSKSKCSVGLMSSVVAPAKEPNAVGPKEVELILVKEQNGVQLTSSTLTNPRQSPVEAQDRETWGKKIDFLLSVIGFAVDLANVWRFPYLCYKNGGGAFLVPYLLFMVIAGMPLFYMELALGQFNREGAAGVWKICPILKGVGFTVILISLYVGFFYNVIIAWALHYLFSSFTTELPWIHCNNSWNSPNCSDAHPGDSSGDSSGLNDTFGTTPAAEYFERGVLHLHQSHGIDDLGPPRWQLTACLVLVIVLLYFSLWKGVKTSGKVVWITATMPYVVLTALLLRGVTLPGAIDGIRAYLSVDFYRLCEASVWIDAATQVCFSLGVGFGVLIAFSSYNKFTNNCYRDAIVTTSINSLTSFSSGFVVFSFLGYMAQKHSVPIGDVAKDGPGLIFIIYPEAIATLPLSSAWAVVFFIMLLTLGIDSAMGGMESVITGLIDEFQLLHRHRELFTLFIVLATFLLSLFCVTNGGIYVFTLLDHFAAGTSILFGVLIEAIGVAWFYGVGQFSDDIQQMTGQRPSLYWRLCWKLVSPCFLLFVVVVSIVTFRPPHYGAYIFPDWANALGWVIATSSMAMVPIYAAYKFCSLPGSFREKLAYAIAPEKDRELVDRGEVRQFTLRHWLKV
How it was run: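 CHO-K1 cells stably expressing human dopamine transporter, exposed to compound at 10 μM or 1 μM in HEPES-buffered saline with 0.5% BSA. [3H]-dopamine uptake measured over 60 min by scintillation counting. Activity expressed relative to 100 μM nomifensine as 100%.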

| SMILES | inhibition at 1 µM [1] [%] | urethral resistance increasing effect (cmH2O) (SD female rats; 3.0 mg/kg oral, 15 min later) | urethral resistance increasing effect (cmH2O) (SD female rats; 3.0 mg/kg oral, 30 min later) | urethral resistance increasing effect (cmH2O) (SD female rats; 10.0 mg/kg oral, 15 min later) | urethral resistance increasing effect (cmH2O) (SD female rats; 10.0 mg/kg oral, 30 min later) | urethral resistance increasing effect (cmH2O) (SD female rats; 30.0 mg/kg oral, 15 min later) | urethral resistance increasing effect (cmH2O) (SD female rats; 30.0 mg/kg oral, 30 min later) | urethral resistance increasing effect (cmH2O) (SD female rats; 0.3 mg/kg oral, 15 min later) | urethral resistance increasing effect (cmH2O) (SD female rats; 0.3 mg/kg oral, 30 min later) | urethral resistance increasing effect (cmH2O) (SD female rats; 1.0 mg/kg oral, 15 min later) | urethral resistance increasing effect (cmH2O) (SD female rats; 1.0 mg/kg oral, 30 min later) | inhibition at 10 µM ([1]; compound 10 μM) [%] |
| --- | --- | --- | --- | --- | --- | --- | --- | --- | --- | --- | --- | --- |
| O=c1[nH]c(-c2cccnc2O[C@@H]2CNCCO[C@H]2c2ccc(Cl)c(F)c2)no1 [Example 556, 3-(2-{[(6R,7S)-7-(4-chloro-3-fluorophenyl)-1,4-oxazepan-6-yl]oxy}pyridin-3-yl)-1,2,4-oxadiazol-5(4H)-one monohydrochloride] | 71 | 6.0 ± 2.0 | 5.0 ± 2.9 | 13.4 ± 1.7 | 10.6 ± 1.8 | 17.8 ± 3.4 | 17.5 ± 2.3 |  |  |  |  |  |
| O=c1[nH]c(-c2cccn(C[C@@H]3CNCCO[C@H]3c3ccc(Cl)c(F)c3)c2=O)no1 [Example 43, 1-{[(6S,7R)-7-(4-chloro-3-fluorophenyl)-1,4-oxazepan-6-yl]methyl}-3-(5-oxo-4,5-dihydro-1,2,4-oxadiazol-3-yl)pyridin-2(1H)-one monohydrochloride] | 15 | 8.4 ± 3.0 | 11.8 ± 2.8 | 13.9 ± 2.1 | 14.8 ± 0.9 |  |  |  |  |  |  |  |
| OC[C@H](O)[C@@H]1OCCNC[C@H]1c1ccc(Cl)c(Cl)c1 [Example 45, (1S)-1-[(6R,7R)-6-(3,4-dichlorophenyl)-1,4-oxazepan-7-yl]ethane-1,2-diol monohydrochloride] | 52 | 16.9 ± 1.4 | 17.5 ± 2.8 | 21.0 ± 2.0 | 22.1 ± 2.0 |  |  | 6.4 ± 1.3 | 9.3 ± 3.3 | 10.0 ± 2.6 | 13.4 ± 1.2 |  |
| O=C(O)c1cccn(C[C@@H]2CNCCO[C@H]2c2ccc(Cl)c(F)c2)c1=O [Example 44, 1-{[(6S,7R)-7-(4-chloro-3-fluorophenyl)-1,4-oxazepan-6-yl]methyl}-2-oxo-1,2-dihydropyridine-3-carboxylic acid monohydrochloride] | 8 | 15.5 ± 3.7 | 13.7 ± 3.3 | 18.8 ± 1.5 | 16.4 ± 1.5 |  |  | 0.1 ± 2.5 | 2.2 ± 2.6 | 8.6 ± 2.6 | 9.8 ± 2.6 |  |
| O=c1[nH]c(-c2ncccc2O[C@@H]2CNCCO[C@H]2c2ccc(Cl)c(F)c2)no1 [Example 584, 3-(3-{[(6R, 7S)-7-(4-chloro-3-fluorophenyl)-1,4-oxazepan-6-yl]oxy}pyridin-2-yl)-1,2,4-oxadiazol-5(4H)-one] | 57 | 9.5 ± 3.5 | 7.2 ± 2.6 | 18.4 ± 3.4 | 16.2 ± 3.3 |  |  |  |  |  |  |  |
| CC(=O)NC[C@@H]1CNCCO[C@H]1c1ccc(Cl)c(Cl)c1 [Example 32, N-{[(6S,7R)-7-(3,4-dichlorophenyl)-1,4-oxazepan-6-yl]methyl}acetamide 0.5 fumarate] | 34 |  |  | 18.3 ± 2.1 | 17.1 ± 3.2 |  |  |  |  |  |  |  |
| CC(=O)N[C@@H]1CNCCO[C@H]1c1ccc(Cl)c(Cl)c1 [Example 36, N-[(6R,7S)-7-(3,4-dichlorophenyl)-1,4-oxazepan-6-yl]acetamide monofumarate] | 53 |  |  | 15.0 ± 1.8 | 14.3 ± 1.8 |  |  |  |  |  |  |  |
| CC(=O)NC[C@H]1CNCCO[C@@H]1c1ccc(Cl)c(Cl)c1 (racemic) [Example 6, N-{[(6RS,7SR)-7-(3,4-dichlorophenyl)-1,4-oxazepan-6-yl]methyl}acetamide monohydrochloride] | 33 |  |  |  |  |  |  |  |  |  |  | 84 |

More lines, main results first:

| inhibition at 1 µM [1] [%] | SMILES | urethral resistance increasing effect (cmH2O) (SD female rats; 3.0 mg/kg oral, 15 min later) | urethral resistance increasing effect (cmH2O) (SD female rats; 3.0 mg/kg oral, 30 min later) | urethral resistance increasing effect (cmH2O) (SD female rats; 10.0 mg/kg oral, 15 min later) | urethral resistance increasing effect (cmH2O) (SD female rats; 10.0 mg/kg oral, 30 min later) | urethral resistance increasing effect (cmH2O) (SD female rats; 30.0 mg/kg oral, 15 min later) | urethral resistance increasing effect (cmH2O) (SD female rats; 30.0 mg/kg oral, 30 min later) | urethral resistance increasing effect (cmH2O) (SD female rats; 0.3 mg/kg oral, 15 min later) | urethral resistance increasing effect (cmH2O) (SD female rats; 0.3 mg/kg oral, 30 min later) | urethral resistance increasing effect (cmH2O) (SD female rats; 1.0 mg/kg oral, 15 min later) | urethral resistance increasing effect (cmH2O) (SD female rats; 1.0 mg/kg oral, 30 min later) | inhibition at 10 µM ([1]; compound 10 μM) [%] |
| --- | --- | --- | --- | --- | --- | --- | --- | --- | --- | --- | --- | --- |
| 35 | COCC(=O)NC[C@@H]1CNCCO[C@H]1c1ccc(Cl)c(Cl)c1 [Example 33, N-{[(6S,7R)-7-(3,4-dichlorophenyl)-1,4-oxazepan-6-yl]methyl}-2-methoxyacetamide monohydrochloride] |  |  | 21.8 ± 3.3 | 20.9 ± 3.4 |  |  |  |  |  |  |  |
| 9 | CCOCC(=O)NC[C@@H]1CNCCO[C@H]1c1ccc(Cl)c(F)c1 [Example 40, N-{[(6S,7R)-7-(4-chloro-3-fluorophenyl)-1,4-oxazepan-6-yl]methyl}-2-ethoxyacetamide monohydrochloride] | 11.4 ± 1.9 | 12.8 ± 1.6 | 16.6 ± 2.0 | 17.2 ± 2.2 |  |  |  |  | 8.5 ± 1.9 | 8.6 ± 2.6 |  |
| 17 | [2H]C([2H])([2H])OCC(=O)NC[C@@H]1CNCCO[C@H]1c1ccc(Cl)c(F)c1 [Example 39, N-{[(6S,7R)-7-(4-chloro-3-fluorophenyl)-1,4-oxazepan-6-yl]methyl}-2-[(^2H3)methyloxy]acetamide monohydrochloride] | 15.8 ± 1.7 | 14.1 ± 1.5 | 17.9 ± 1.8 | 17.1 ± 2.3 |  |  |  |  | 12.3 ± 2.2 | 8.7 ± 2.6 |  |
| 11 | CC(C)OCC(=O)NC[C@@H]1CNCCO[C@H]1c1ccc(Cl)c(F)c1 [Example 41, N-{[(6S,7R)-7-(4-chloro-3-fluorophenyl)-1,4-oxazepan-6-yl]methyl}-2-(1-methylethoxy)acetamide monohydrochloride] | 9.8 ± 3.8 | 9.6 ± 2.3 | 17.8 ± 1.6 | 16.1 ± 1.5 |  |  |  |  |  |  |  |
| 11 | COCC(=O)NC[C@@H]1CNCCO[C@H]1c1ccc(Cl)c(F)c1 [Example 38, N-{[(6S,7R)-7-(4-chloro-3-fluorophenyl)-1,4-oxazepan-6-yl]methyl}-2-methoxyacetamide monohydrochloride] | 18.0 ± 2.5 | 17.4 ± 2.4 | 21.6 ± 2.9 | 21.3 ± 3.3 |  |  | 4.2 ± 1.7 | 5.1 ± 1.7 | 12.9 ± 3.3 | 9.3 ± 1.6 |  |
